Source: patent publication US12478677B2, “Tunable luminescent organic salts for enhanced imaging and photodynamic therapy” (BOARD OF TRUSTEES OF MICHIGAN STATE UNIVERSITY, priority 2017, dated 2025)
pIC50: −log10 of the molar value. “Also recorded” adds a separate entry of the source. Like-named read-outs stand apart in the source and are kept apart here.

Tests used:
[1] = Absorption and emission spectra; type: physicochemical
Method: FIGS. 8A-8F. Non-toxic cation-anion pair enhances live cell IR fluorescence imaging. FIG. 8A is a graph showing tunable organic salts absorb and emit in the IR (700-1200 nm) and eliminate background noise from absorbance/emission tissue components such as melanin, water, oxyhemoglobin (Hb-O2) and hemoglobin (Hb). […] A549 cells were incubated with vehicle, 1 μM CyPF6, or 1 μM CyTPFB with or without IR (850 nm) excitation. Cell viability determined by trypan blue staining and cell counting. (D) CyTPFB staining in A549 cells. (E) DNA staining using 4',6-diamidino-2-phenylindole (DAPI). (F) Superimposed CyTPFB+DAPI staining. Effective fluorescence dyes must be non-toxic for live cell imaging. […] Further developed are luminescent dyes that absorb and emit in the optical tissue window for imaging without background absorption/emission from components of tissue such as water, hemoglobin, and melanin, as shown in FIG. 8A. Heptamethine cyanine (Cy^+) is a photoactive cation that absorbs and emits in IR wavelengths, with an excitation/emission maximum of 830/848 nm, as shown in FIG. 8B. The deeper excitation and emission of Cy^+ provide an advantage over Cy7 (excitation/emission maximum of 750/773 nm), allowing imaging at greater tissue depths. […] Imaging live cells with these toxic cation-anion pairs requires usage of low doses that result in low absorbance and emission, resulting in poor quality images. […] CyTPFB is non-toxic to cells even at greater than 20-fold higher concentrations of 20 μM. The non-toxic nature of CyTPBF allows use of high doses in eukaryotic and prokaryotic cells for enhanced IR imaging with greater brightness, as shown in FIGS. 8D-8F for a eukaryotic cell example.

[2] = system: A549 cells; assay: Viability studies (trypan blue staining and cell counting) with or without IR excitation; type: cell-based, human; settings: for Concentration at which cytotoxic: cells, toxic at low concentration, even without IR light; for pIC50: linear regression analysis; for Phototoxicity with IR excitation, in words: IR (850 nm) excitation; for Toxicity in words, dark and light: with or without IR (850 nm) excitation; for Toxicity in the dark, in words: without IR excitation
Method: The cell lines human lung carcinoma (A549), metastatic human melanoma (WM1158) and Vemurafenib-resistant melanoma (Sk-Mel-28-Vem^R) are used. Sk-Mel-28-Vem^R is generated by culturing a parental melanoma cell lines in the presence of 2 μM Vemurafenib for 2 months. Acquired Vemurafenib resistance is defined by >1 log change in IC50 between nonresistant and resistant cell lines. Resistance is maintained through media supplementation with 2 μM Vemurafenib, which is changed every 48 hours. All cells are cultured in DMEM without pyruvate with 10% heat inactivated fetal bovine serum supplemented with glutamine and penicillin/streptomycin, and incubated in 37° C. with 5% CO2.
A549 and WM1158 cells are seeded at a density of 50,000 cells per well in 6-well tissue culture plates. After 24 hours of incubation, media is aspirated and replaced with media containing luminescent dyes at indicated concentrations. Each well is irradiated with an 850 nm LED lamp with an illumination rate of 526 mW/cm^2 for an hour in the incubator, and control cells are left in a dark incubator without irradiation. For studies with Cy7, a 740 nm LED lamp is used instead of an 850 nm, but with a similar illumination flux. Immediately after irradiation, the media is replenished with fresh dye-laced media and allowed to incubate for another 24 hours. […] Viable cell number is determined at 24 and 96 hours using trypan blue staining and a Nexcelom Cellometer Auto T4 cell counter. All assays are done with 3 biological replicates. The fold change in cell proliferation over days of treatment was calculated using the following equation.

[3] = Salt integrity and aggregation in cell media (mass spectrometry, electron microscopy, UV-Vis); type: physicochemical; settings: for Integrity of salt pairing in cellular environments: high resolution mass spectrometry, electron microscopy, UV-Vis spectroscopy
Excerpt: FIGS. 7A-7C. […] Organic salts were first dissolved in DMSO and then diluted in water, forming nanoparticles. […] Combinations of H- and J-aggregation of organic salts can be seen by blue-shifted peaks (lower wavelength) and red-shifted peaks (higher wavelength), respectively. The nanoparticles with small hard anions redissolve in cell media likely due to sterics. […] This is achieved by cation-anion pairs of luminescent organic salts that can be modulated to be either non-toxic for enhanced imaging, or phototoxic for improved PDT. […] IR polymethine cyanine dyes, which have been used as effective theranostics are described. […] This is thought to occur through a mechanism mitigated by tumor vascularization, increased retention in cancer cells, and mitochondrial depolarization. Once in the cell, they accumulate in the mitochondria and lysosomes, where irradiation induces generation of cytotoxic oxygen species. A strategy is described for preventing or inhibiting salt dissociation in cells: aggregates are formed via introduction of the salt into an aqueous media by a solvent vehicle, forming particles with diameters of about 5 nm in size with no precipitation observed. […] This is confirmed by high resolution mass spectrometry, electron microscopy, and UV-Vis spectroscopy. […] Normalized absorption data are sown in FIGS. 7A, 7B, and 7C. This is likely due to steric effects, where if the counterion radius is too small it is not able to protect the nanoparticle stability. This can be characterized by the volume-averaged effective spherical radius of the counterions, where the cutoff is at about 0.275 nm.

[4] = system: mitochondrial superoxide; assay: MitoSOX measurement of mitochondrial superoxide; type: cell-based, human; settings: A549 cells treated 4 days at phototoxic concentrations; with or without light
Excerpt: FIG. 22. Luminescent organic salts generate mitochondrial ROS. […] MitoSOX is used to measure mitochondrial superoxide, and H2DCFDA for general cytoplasmic ROS in A549 cell treated with organic salts at indicated phototoxic concentrations for 4 days.
Photoactive agents accumulate in the mitochondria of cancer cells and generate reactive oxygen species (ROS) with light exposure, depolarizing the mitochondrial membrane potential to cause cell death. Small molecule protective agents that quench ROS have been used to decrease their phototoxicity. However, the exact type of ROS generated by each luminescent agent remains unclear. Photo-induced ROS include singlet oxygen, superoxide radical anion, hydrogen peroxide, hydroxyl radical and others (see FIG. 21). Superoxide is a highly reactive and biologically toxic species deployed in nature to kill invading organisms. It is often formed as a byproduct of mitochondrial respiration but is typically quenched by the highly efficient superoxide dismutase. Hydroxyl radicals are also highly reactive, damaging nearly all forms of biological molecules. Unlike superoxide radical, the hydroxyl radical cannot be easily quenched naturally via enzymes, and endogenous antioxidants are typically required. Singlet oxygen is the excited state of the common triplet oxygen (O2 ground state) and is highly reactive towards organic compounds. Singlet oxygen can be eliminated in mammalian systems by antioxidants. A range of nitroxy radicals can subsequently stem from superoxide (peroxynitrite) or peroxide (nitrogen dioxide) species. […] Each luminescent cation-anion pair generates specific ROS resonant with its own energy level, and cell types can be targeted by generating the key sensitizing ROS. For example, it is expected that CyFPhB is phototoxic (see FIGS. 11A and 11B and 12A and 12B) by generating reactive oxygen species, which can be resonant with its molecular orbital energy levels (FIG. 21). […] No cytoplasmic ROS is detected using general cytoplasmic ROS probe H2DCFDA. […]

[5] = In vivo imaging, organ and tumor localization in orthotopic breast cancer mouse model; settings: 1 mg/kg intraperitoneal, after 72 hours
Method: Mice are dosed with 1 mg/kg of organic salt in PBS (phosphate buffered saline) via intraperitoneal injection. Live imaging is performed by anesthetizing the mice with 3% isofluorane and using a Leica M165FC microscope with a PE4000 LED light source, DFC9000GT camera, and LAS X imaging software. For internal imaging, mice are sacrificed once tumors reach a size of 20 mm^3 and organs of interest are retrieved and imaged using the system described previously.

[6] = A549 cells, 850 nm irradiation, read-out: IC50 850 nm
[7] = A549 cells, dark, no irradiation, read-out: IC50 Dark

SMILES | Integrity of salt pairing in cellular environments [3] | pIC50 [2, 6] | pIC50 [2, 7] | Toxicity in words, dark and light ([2]; A549 cells) | Toxicity in the dark, in words ([2]; A549 cells) | other results
C[N+]1=C(C=CC2=CC(=CC=C3N(CCCCCC(=O)ON4C(=O)CCC4=O)c4ccccc4C3(C)C)CCC2)C(C)(C)c2ccccc21.[Cl-] [Cy7, Cyanine7 NHS ester, reference compound] |  |  |  |  |  | Emission maximum [1]: 773 nm; Excitation maximum [1]: 750 nm; Toxicity of Cy7 salts, in words ([2]; A549 cells, with or without IR (740 nm) excitation): highly cytotoxic; Concentration at which cytotoxic [2]: 1000 nM
CCN1C(=CC=C2CCCC(C=CC3=[N+](CC)c4ccc5ccccc5c4C3(C)C)=C2Cl)C(C)(C)c2c1ccc1ccccc21.Fc1ccc([B-](c2ccc(F)cc2)(c2ccc(F)cc2)c2ccc(F)cc2)cc1 [CyFPhB] | maintained in cellular environments | 5.46 | 4.34 | phototoxic but not cytotoxic; also recorded: phototoxic (but not cytotoxic) | allow cell growth in the dark | Aggregation / nanoparticle behaviour in cell media, in words ([3]; cell media): forms small photoactive nanoparticles in cell media; Average nanoparticle size in cell media ([3]; cell media): < 10 nm; Phototoxicity with IR excitation, in words ([2]; A549 cells): most phototoxic; also recorded: cause significant cell death with IR excitation; also recorded: highly phototoxic; Phototoxicity with IR excitation, in words ([2]; A549 cells, listed as Cy^+ paired with FPhB): phototoxic; Toxicity in the dark, in words ([2]; A549 cells, listed as Cy^+ paired with FPhB^−): deactivates the dark cellular toxicity; Mitochondrial superoxide / ROS generation (MitoSOX), in words [4]: photo-generating ROS only with illumination; also recorded: photo-generating superoxide only with illumination
CCN1C(=CC=C2CCCC(C=CC3=[N+](CC)c4ccc5ccccc5c4C3(C)C)=C2Cl)C(C)(C)c2c1ccc1ccccc21.F[P-](F)(F)(F)(F)F [CyPF6] |  | 6.05 | 5.80 | toxic both in the dark and under IR (850 nm) illumination; also recorded: cytotoxic | cytotoxic | Localization in tumor versus other organs [5]: concentration of the organic salt to the tumor; Aggregation / nanoparticle behaviour in cell media, in words ([3]; cell media): lack of aggregation observed in cell media; Concentration at which cytotoxic [2]: < 2500 nM; Concentration at which cytotoxic ([2]; listed as Cy+ paired with PF6^−): 1600 nM; Mitochondrial superoxide / ROS generation (MitoSOX), in words [4]: catalyzing superoxide with or without light
CCN1C(=CC=C2CCCC(C=CC3=[N+](CC)c4ccc5ccccc5c4C3(C)C)=C2Cl)C(C)(C)c2c1ccc1ccccc21.FC(F)(F)c1cc([B-](c2cc(C(F)(F)F)cc(C(F)(F)F)c2)(c2cc(C(F)(F)F)cc(C(F)(F)F)c2)c2cc(C(F)(F)F)cc(C(F)(F)F)c2)cc(C(F)(F)F)c1 [CyTFM] | maintained in cellular environments | 4.54 | 3.90 | not toxic to cells in the dark and in the light | deactivates the dark cellular toxicity | 
CCN1C(=CC=C2CCCC(C=CC3=[N+](CC)c4ccc5ccccc5c4C3(C)C)=C2Cl)C(C)(C)c2c1ccc1ccccc21.Clc1c(Cl)c(Cl)c2c(c1Cl)O[P-]13(O2)(Oc2c(Cl)c(Cl)c(Cl)c(Cl)c2O1)Oc1c(Cl)c(Cl)c(Cl)c(Cl)c1O3 [CyTRIS] | maintained in cellular environments | 2.92 | 2.91 | not toxic to cells in the dark and in the light | deactivates the dark cellular toxicity | 
CCN1C(=CC=C2CCCC(C=CC3=[N+](CC)c4ccc5ccccc5c4C3(C)C)=C2Cl)C(C)(C)c2c1ccc1ccccc21 [Cy^+, 2-[2-[2-chloro-3-[2-(1,3-dihydro-3,3-dimethyl-1-ethyl-2H-benz[e]indol-2-ylidene)ethylidene]-1-cylohexen-1-yl]-ethenyl]-3,3-dimethyl-1-ethyl-1H-benz[e]indolium] |  |  |  |  |  | Emission maximum [1]: 848 nm; Excitation maximum [1]: 830 nm
[I-].[K+] [KI, reference compound] |  |  |  | not toxic; also recorded: does not cause toxicity in the dark or with light |  | 
